Test results published in patent US20250171420A1 (Monte Rosa Therapeutics, Inc., priority 2022, published 2025).
Where two headings read alike, the source gives them in different places.

How the values were obtained:
LS180 cell line = assay: Growth inhibition, CyQUANT Direct Cell Proliferation Assay, LS180; type: cell-based; conditions: Homo sapiens
Description: (§1) SKCO1, LS180, and LS174T cell lines were purchased from ATCC. CW2 cell line was purchased from Riken. GP2D cell line was purchased from Sigma/ECACC. All cell lines were cultured in manufacturer's recommended media at 37° C., 5% CO2. Briefly, cells were suspended in 200 μL of media and seeded at 300 to 1,800 cells per well in tissue culture treated 96-well plates with black walls and clear bottom. Plates were incubated overnight and initial (To) read was performed the following day using CyQUANT Direct Cell Proliferation Assay Kit (Thermo Fisher Scientific) according to manufacturer's protocol. All compounds were solubilized in DMSO and prepared at 3-fold serial dilution, using 9 points starting at 30 μM as highest concentration, administered to cells and incubated for 120 to 168 hours, at which point CyQUANT assay measurement was performed using Acumen Cellista instrument (Ex/Em 480/520 nm). Media-only wells were used as blank, and 0.3% DMSO was used as DMSO-treated cell control. Growth inhibition (percent response) was calculated using the following formula in Excel: “=if ([Compound treated Day N]>[Untreated Day 0, AVG], ([Compound treated Day N]−[Untreated Day 0, AVG])/([Untreated Day N]−[Untreated Day 0, AVG])*100, ([Compound Treated Day N]−[Untreated Day 0, AVG])/([Untreated Day 0, AVG])*100)”. GI50 is the response corresponding to the 50% of untreated control.
(§2) GI50 data are reported in Tables 4a, 4b, 4c, 4d, and 4e for compounds in Table 1. In Tables 4a, 4b, 4c, 4d, and 4e below, According to the code, A represents a GI50 value of ≤0.1 μM, B represents a GI50 value>0.1 μM and ≤1 μM, C represents an GI50 value>1 μM.

SKCO1 cell line = assay: Growth inhibition, CyQUANT Direct Cell Proliferation Assay, SKCO1; type: cell-based; conditions: Homo sapiens
Description: as §1, §2

CK1α = target: T1, CK1α (Homo sapiens, UniProt P48729); assay: CK1α NanoBit Assay (HiBiT-tagged CSNK1A1, HEK293 clonal lines); type: cell-based; conditions: HEK293 HiBiT-CSNK1A1/LgBiT cells, 24 h incubation
T1 construct: HEK293 clonal lines with CRISPR KI HiBiT tag on CSNK1A1
T1 sequence (P48729 whole entry): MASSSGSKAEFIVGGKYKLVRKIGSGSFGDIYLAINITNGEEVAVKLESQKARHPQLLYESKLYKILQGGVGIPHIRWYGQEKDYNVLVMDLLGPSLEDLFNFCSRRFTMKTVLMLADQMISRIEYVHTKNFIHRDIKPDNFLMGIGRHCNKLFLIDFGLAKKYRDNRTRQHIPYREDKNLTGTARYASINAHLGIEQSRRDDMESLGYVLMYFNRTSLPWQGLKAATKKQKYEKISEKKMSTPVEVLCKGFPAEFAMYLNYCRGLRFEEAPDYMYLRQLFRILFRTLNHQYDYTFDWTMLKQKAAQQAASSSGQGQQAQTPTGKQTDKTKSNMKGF
T1 sequence (Q96SW2 whole entry, further chain): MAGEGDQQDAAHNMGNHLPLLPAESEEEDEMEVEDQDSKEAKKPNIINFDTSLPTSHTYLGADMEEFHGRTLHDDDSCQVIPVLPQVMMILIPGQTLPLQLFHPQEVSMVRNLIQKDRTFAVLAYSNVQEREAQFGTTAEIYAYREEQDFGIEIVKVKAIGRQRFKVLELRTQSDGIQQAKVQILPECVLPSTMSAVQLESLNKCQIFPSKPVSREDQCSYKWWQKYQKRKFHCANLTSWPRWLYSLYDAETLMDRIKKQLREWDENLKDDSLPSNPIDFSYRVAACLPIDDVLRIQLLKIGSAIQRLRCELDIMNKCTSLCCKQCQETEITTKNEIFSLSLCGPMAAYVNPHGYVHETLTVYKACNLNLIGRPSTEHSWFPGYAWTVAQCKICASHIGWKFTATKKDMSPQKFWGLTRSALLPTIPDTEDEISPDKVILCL
T1 sequence (Q16531 2-1140 partner limits assumed): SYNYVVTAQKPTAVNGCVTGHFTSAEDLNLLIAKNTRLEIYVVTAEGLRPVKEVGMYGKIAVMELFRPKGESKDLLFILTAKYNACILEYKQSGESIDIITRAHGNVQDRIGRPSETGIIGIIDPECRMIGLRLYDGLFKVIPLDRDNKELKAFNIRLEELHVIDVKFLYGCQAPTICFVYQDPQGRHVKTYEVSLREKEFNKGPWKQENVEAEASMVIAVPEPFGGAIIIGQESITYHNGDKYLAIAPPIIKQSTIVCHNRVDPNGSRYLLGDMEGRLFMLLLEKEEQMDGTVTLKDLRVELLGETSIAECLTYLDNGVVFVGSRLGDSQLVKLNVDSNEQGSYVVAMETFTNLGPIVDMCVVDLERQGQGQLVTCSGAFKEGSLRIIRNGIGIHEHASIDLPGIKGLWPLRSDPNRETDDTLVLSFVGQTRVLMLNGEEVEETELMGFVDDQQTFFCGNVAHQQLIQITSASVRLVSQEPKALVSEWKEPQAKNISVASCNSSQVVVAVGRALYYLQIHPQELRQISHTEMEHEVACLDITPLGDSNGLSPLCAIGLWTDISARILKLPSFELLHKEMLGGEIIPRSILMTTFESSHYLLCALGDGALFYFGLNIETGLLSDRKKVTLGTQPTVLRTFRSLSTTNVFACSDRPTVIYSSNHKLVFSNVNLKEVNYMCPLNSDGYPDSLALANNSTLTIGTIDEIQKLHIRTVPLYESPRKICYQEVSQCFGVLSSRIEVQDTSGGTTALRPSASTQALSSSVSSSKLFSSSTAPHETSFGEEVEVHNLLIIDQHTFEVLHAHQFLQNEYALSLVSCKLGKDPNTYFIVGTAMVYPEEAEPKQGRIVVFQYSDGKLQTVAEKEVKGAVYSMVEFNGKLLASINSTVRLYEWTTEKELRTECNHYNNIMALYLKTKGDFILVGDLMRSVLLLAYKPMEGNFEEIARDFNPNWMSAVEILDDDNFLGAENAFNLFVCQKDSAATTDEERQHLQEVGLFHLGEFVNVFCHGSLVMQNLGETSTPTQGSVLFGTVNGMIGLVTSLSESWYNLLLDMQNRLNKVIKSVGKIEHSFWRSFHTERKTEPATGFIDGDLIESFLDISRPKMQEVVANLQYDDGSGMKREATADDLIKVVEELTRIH
Method in brief: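 HEK293 clones carrying a CRISPR knock-in HiBiT tag on CSNK1A1 and stably expressing LgBiT are treated with compound for 24 hours at 37° C, 5% CO2, then read by luminescence. Response is normalized as 100*(S−N)/(P−N) against plate negative and positive controls, and DC50 values are derived.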

LS174T cell line = assay: Growth inhibition, CyQUANT Direct Cell Proliferation Assay, LS174T; type: cell-based; conditions: Homo sapiens
Description: as §1, §2

CW2 cell line = assay: Growth inhibition, CyQUANT Direct Cell Proliferation Assay, CW2; type: cell-based; conditions: Homo sapiens
Description: as §1, §2

CRBN/DDB1 = CRBN/DDB1 (Homo sapiens, UniProt Q96SW2); assay: HTRF binding assay (displacement of Cy5-thalidomide probe from CRBN/DDB1); conditions: CRBN/DDB1 2.5 nM, Cy5-Thalidomide 100 nM, 30 min; geometric mean; read-out: HTRF_Thali_Disp_DR_geo_IC50
Chain of CRBN/DDB1 (Q96SW2 whole entry, species assumed): as the sequence (Q96SW2 whole entry, further chain) above
Chain of CRBN/DDB1 (Q16531 whole entry partner, species assumed): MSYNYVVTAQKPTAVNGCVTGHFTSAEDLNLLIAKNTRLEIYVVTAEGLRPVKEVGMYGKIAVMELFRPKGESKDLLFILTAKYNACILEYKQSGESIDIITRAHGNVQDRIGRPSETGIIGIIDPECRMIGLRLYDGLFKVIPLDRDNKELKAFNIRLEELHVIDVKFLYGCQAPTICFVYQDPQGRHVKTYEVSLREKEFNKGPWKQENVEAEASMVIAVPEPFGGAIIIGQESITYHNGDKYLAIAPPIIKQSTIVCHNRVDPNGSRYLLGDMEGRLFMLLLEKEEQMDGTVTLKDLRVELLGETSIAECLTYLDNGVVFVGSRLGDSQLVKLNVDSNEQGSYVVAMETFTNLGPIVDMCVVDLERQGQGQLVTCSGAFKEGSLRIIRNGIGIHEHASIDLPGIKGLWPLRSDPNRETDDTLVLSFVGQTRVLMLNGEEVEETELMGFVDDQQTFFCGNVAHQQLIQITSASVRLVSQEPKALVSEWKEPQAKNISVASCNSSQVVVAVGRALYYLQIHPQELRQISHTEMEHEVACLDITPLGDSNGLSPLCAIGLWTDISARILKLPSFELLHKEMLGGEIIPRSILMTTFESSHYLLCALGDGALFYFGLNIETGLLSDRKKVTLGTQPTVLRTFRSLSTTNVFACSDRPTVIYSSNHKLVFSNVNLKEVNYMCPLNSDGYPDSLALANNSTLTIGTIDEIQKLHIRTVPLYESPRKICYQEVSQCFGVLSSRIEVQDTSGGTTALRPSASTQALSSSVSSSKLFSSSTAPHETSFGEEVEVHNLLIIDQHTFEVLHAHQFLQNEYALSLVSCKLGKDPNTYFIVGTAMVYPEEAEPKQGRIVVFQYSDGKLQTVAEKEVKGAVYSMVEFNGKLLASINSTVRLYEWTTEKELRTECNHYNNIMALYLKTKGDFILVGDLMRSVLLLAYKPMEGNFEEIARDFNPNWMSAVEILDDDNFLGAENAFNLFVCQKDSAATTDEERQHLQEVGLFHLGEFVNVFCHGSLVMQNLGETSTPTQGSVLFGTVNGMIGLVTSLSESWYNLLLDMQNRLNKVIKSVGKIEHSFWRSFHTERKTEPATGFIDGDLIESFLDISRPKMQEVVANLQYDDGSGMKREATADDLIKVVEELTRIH
Method in brief: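 HTRF displacement of Cy5-thalidomide (100 nM) from His-tagged CRBN/DDB1 (2.5 nM) with anti-His Tb cryptate in 20 mM HEPES, 20 mM NaCl, 0.2 mM TCEP, 0.2 mM EDTA, 0.005% Tween20. 10-point 1:3 series, 30 min ambient. 665/620 nm ratio fitted 4-parameter for IC50; Ki by Cheng-Prusoff from geometric-mean IC50.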

GP2D cell line = assay: Growth inhibition, CyQUANT Direct Cell Proliferation Assay, GP2D; type: cell-based
Description: as §1, §2

[1] = Oral pharmacokinetics in male BALB/c mice; type: in vivo; conditions: mouse, plasma, mean ± SD
Description: Male BALB/c mice were administered a discrete, oral (PO) dose of Compound 288, Compound 335, Compound 102, or Compound 303 at 10 mg/kg; all mice were fasted except for mice that were dosed with Compound 288. Male BALB/c mice were fasted overnight and administered a cassette dose, PO dose of Compound 303 and other compounds at 5 mg/kg per compound.
Blood samples were collected serially from three animals/time-point following PO administration of the test compounds to the mice and placed in tubes containing K2EDTA. The blood samples were centrifuged, and the aliquots of the resulting plasma stored frozen at −60 to −90° C.
The plasma samples were analyzed by LC-MS/MS to determine concentrations of the test compounds. The in-life portion of the study and the bioanalysis of plasma samples was conducted at Wuxi (China).
The pharmacokinetic parameters for the tested compounds were calculated by non-compartmental analysis using Phoenix WinNonlin software.

[2] = LS180, 120 to 168 hours, read-out: LS180 GI50
[3] = SK-CO-1, SKCO1, 120 to 168 hours, read-out: SKCO1 GI50
[4] = 120 to 168 hours, read-out: LS174T GI50
[5] = CW-2, CW2, 120 to 168 hours, read-out: CW2 GI50
[6] = GP2D, 120 to 168 hours, read-out: GP2D GI50
[7] = LS180, read-out: LS180 GI50 (μM)
[8] = SK-CO-1, read-out: SKCO1 GI50 (μM)

SMILES | GI50 (SKCO1 cell line; [3]) [µM] | DC50 (CK1α) [µM] | IC50 (CRBN/DDB1) [nM] | GI50 (LS180 cell line; [2]) [µM] | GI50 (LS174T cell line; [4]) [µM] | GI50 (CW2 cell line; [5]) [µM] | GI50 (GP2D cell line; [6]) [µM] | also measured
Cc1ccc2c(c1)CCN2C(=O)Nc1ccc2c(c1)CN(C1CCC(=O)NC1=O)C2=O (stereo not drawn) [Compound 214, N-(2-(2,6-dioxopiperidin-3-yl)-1-oxoisoindolin-5-yl)-5-methylindoline-1-carboxamide] | < 0.1 | < 0.1 | 100 to 1000 | 0.1 to 1 | 0.1 to 1 | < 0.1 | < 0.1 | 
O=C1CCC(N2Cc3cc(NC(=O)N4C[C@H](C5CC5)C[C@@H]4C4CC4)ccc3C2=O)C(=O)N1 (stereo partly drawn) [Compound 256] | < 0.1 | < 0.1 | 100 to 1000 | 0.1 to 1 | < 0.1 | < 0.1 | 0.1 to 1 | 
C[C@H]1CN(C(=O)Nc2ccc3c(c2)CN(C2CCC(=O)NC2=O)C3=O)c2ccccc21 (stereo partly drawn) [Compound 284] | < 0.1 | < 0.1 | 100 to 1000 | 0.1 to 1 | < 0.1 | < 0.1 | 0.1 to 1 | 
O=C1CCC(N2Cc3cc(NC(=O)N4CCc5cc(C(F)(F)F)ncc54)ccc3C2=O)C(=O)N1 (stereo not drawn) [Compound 287, N-(2-(2,6-dioxopiperidin-3-yl)-1-oxoisoindolin-5-yl)-5-(trifluoromethyl)-2,3-dihydro-1H-pyrrolo[2,3-c]pyridine-1-carboxamide] |  | < 0.1 | 100 to 1000 |  |  |  |  | GI50 (LS180 cell line; [7]): 0.1 to 1 µM; GI50 (SKCO1 cell line; [8]): < 0.1 µM; GI50 (LS174T cell line; read-out: LS174T GI50 (μM)): < 0.1 µM; GI50 (CW2 cell line; CW-2, read-out: CW2 GI50 (μM)): < 0.1 µM; GI50 (GP2D cell line; GP2d, read-out: GP2D GI50 (μM)): < 0.1 µM
COC[C@H]1Cc2c(F)cccc2N1C(=O)Nc1ccc2c(c1)CN(C1CCC(=O)NC1=O)C2=O (stereo partly drawn) [Compound 303, (2R)—N-(2-(2,6-dioxopiperidin-3-yl)-1-oxoisoindolin-5-yl)-4-fluoro-2-(methoxymethyl)indoline-1-carboxamide] |  | < 0.1 | 100 to 1000 |  |  |  |  | AUC ([1]; PO 5 mg/kg (cassette dose)): 12700 ± 1760 ng·h/mL; AUC(0-t) ([1]; PO 5 mg/kg (cassette dose)): 12300 ± 1710 ng·h/mL; Cmax ([1]; PO 5 mg/kg (cassette dose)): 7790 ± 1060 ng/mL; Tmax ([1]; PO 5 mg/kg (cassette dose)): 30 min; half-life ([1]; PO 5 mg/kg (cassette dose)): 90.6 ± 13.2 min
COC[C@H]1CN(C(=O)Nc2ccc3c(c2)CN(C2CCC(=O)NC2=O)C3=O)c2cccc(C(F)(F)F)c21 (stereo partly drawn) [Compound 329, (3R)—N-(2-(2,6-dioxopiperidin-3-yl)-1-oxoisoindolin-5-yl)-3-(methoxymethyl)-4-(trifluoromethyl)indoline-1-carboxamide] | < 0.1 | < 0.1 | 100 to 1000 | 0.1 to 1 | 0.1 to 1 | 0.1 to 1 | 0.1 to 1 | 
O=C1CCC(N2Cc3cc(NC(=O)N4CCc5cc(C6CCC6)ccc54)ccc3C2=O)C(=O)N1 (stereo not drawn) [Compound 357, 5-cyclobutyl-N-(2-(2,6-dioxopiperidin-3-yl)-1-oxoisoindolin-5-yl)indoline-1-carboxamide] |  | < 0.1 | > 1000 |  |  |  |  | GI50 (LS180 cell line; [7]): 0.1 to 1 µM; GI50 (SKCO1 cell line; [8]): < 0.1 µM; GI50 (LS174T cell line; read-out: LS174T GI50 (μM)): < 0.1 µM; GI50 (CW2 cell line; CW-2, read-out: CW2 GI50 (μM)): < 0.1 µM; GI50 (GP2D cell line; GP2d, read-out: GP2D GI50 (μM)): < 0.1 µM

Second part, led by results:

GI50 (SKCO1 cell line; [3]) [µM] | DC50 (CK1α) [µM] | IC50 (CRBN/DDB1) [nM] | SMILES | GI50 (LS180 cell line; [2]) [µM] | GI50 (LS174T cell line; [4]) [µM] | GI50 (CW2 cell line; [5]) [µM] | GI50 (GP2D cell line; [6]) [µM] | also measured
0.1 to 1 | < 0.1 | 100 to 1000 | COC[C@H]1Cc2c(C3CC3)cccc2N1C(=O)Nc1ccc2c(c1)CN(C1CCC(=O)NC1=O)C2=O (stereo partly drawn) [Compound 332, (2R)-4-cyclopropyl-N-(2-(2,6-dioxopiperidin-3-yl)-1-oxoisoindolin-5-yl)-2-(methoxymethyl)indoline-1-carboxamide] | 0.1 to 1 | 0.1 to 1 | < 0.1 | 0.1 to 1 | 
 | < 0.1 | 100 to 1000 | COCC1c2ccc(C3CC3)cc2CN1C(=O)Nc1ccc2c(c1)CN(C1CCC(=O)NC1=O)C2=O (stereo not drawn) [Compound 335, 5-cyclopropyl-N-(2-(2,6-dioxopiperidin-3-yl)-1-oxoisoindolin-5-yl)-1-(methoxymethyl)isoindoline-2-carboxamide] |  |  |  |  | AUC ([1]; PO 10 mg/kg): 13400 ± 696 ng·h/mL; AUC(0-t) ([1]; PO 10 mg/kg): 13300 ± 694 ng·h/mL; Cmax ([1]; PO 10 mg/kg): 10600 ± 697 ng/mL; Tmax ([1]; PO 10 mg/kg): 15 min; half-life ([1]; PO 10 mg/kg): 64.8 ± 2.4 min
< 0.1 | < 0.1 | 100 to 1000 | COC[C@H]1CN(C(=O)Nc2ccc3c(c2)CN(C2CCC(=O)NC2=O)C3=O)c2ccccc21 (stereo partly drawn) [Compound 338, (3R)—N-(2-(2,6-dioxopiperidin-3-yl)-1-oxoisoindolin-5-yl)-3-(methoxymethyl)indoline-1-carboxamide] | < 0.1 | < 0.1 | 0.1 to 1 | < 0.1 | 
0.1 to 1 | < 0.1 | 100 to 1000 | COC[C@@H]1Cc2c(C3CC3)cccc2N1C(=O)Nc1ccc2c(c1)CN(C1CCC(=O)NC1=O)C2=O (stereo partly drawn) [Compound 339, (2S)-4-cyclopropyl-N-(2-(2,6-dioxopiperidin-3-yl)-1-oxoisoindolin-5-yl)-2-(methoxymethyl)indoline-1-carboxamide] | > 1 | 0.1 to 1 | 0.1 to 1 | 0.1 to 1 | 
< 0.1 | < 0.1 | 100 to 1000 | O=C1CCC(N2Cc3cc(NC(=O)N4CCc5c4cccc5-n4cccn4)ccc3C2=O)C(=O)N1 (stereo not drawn) [Compound 340, N-(2-(2,6-dioxopiperidin-3-yl)-1-oxoisoindolin-5-yl)-4-(1H-pyrazol-1-yl)indoline-1-carboxamide] | 0.1 to 1 | < 0.1 | 0.1 to 1 | < 0.1 | 
< 0.1 | < 0.1 | 100 to 1000 | COCc1cccc2c1CCN2C(=O)Nc1ccc2c(c1)CN(C1CCC(=O)NC1=O)C2=O (stereo not drawn) [Compound 341] | 0.1 to 1 | 0.1 to 1 | 0.1 to 1 | < 0.1 | 
< 0.1 | < 0.1 | 100 to 1000 | CC1(c2ccc3c(c2)CCN3C(=O)Nc2ccc3c(c2)CN(C2CCC(=O)NC2=O)C3=O)CC1 (stereo not drawn) [Compound 344, N-(2-(2,6-dioxopiperidin-3-yl)-1-oxoisoindolin-5-yl)-5-(1-methylcyclopropyl)indoline-1-carboxamide] | 0.1 to 1 | 0.1 to 1 | < 0.1 | < 0.1 | 
< 0.1 | < 0.1 | 100 to 1000 | O=C1CCC(N2Cc3cc(NC(=O)N4CCc5cc(C6CC6)ccc54)ccc3C2=O)C(=O)N1 (stereo not drawn) [Compound 348, 5-cyclopropyl-N-(2-(2,6-dioxopiperidin-3-yl)-1-oxoisoindolin-5-yl)indoline-1-carboxamide] | < 0.1 | < 0.1 | < 0.1 | < 0.1 | 
